From patent publication US5534498A, “Trypsin inhibitors” (Corvas International, Inc., priority 1993, dated 1996)
pIC50, pKi: −log10 of the molar value. Residues, ends and D or L forms follow the SMILES beside them. *: point of attachment. Boc = CC(C)(C)OC(=O)*

Legend:
[1] = test system: caerulein-induced pancreatitis in balb/c mice; assay: Animal model for pancreatitis: caerulein-induced pancreatitis, serum amylase; type: in vivo; details: caerulein 3 × 100 μg/kg IP, inhibitor 50 mg/kg IP, blood 4 hours after last inhibitor injection, saline + caerulein 64.4 ± 14.4, control 10.4 ± 1.6
Experimental: The efficacy of the compounds of the present invention as a prophylactic treatment for pancreatitis is assessed in vivo using the chemically-induced animal model of Niederau et al., Gastroenterology 88:1192-1204 (1985).
Pancreatitis was induced in fasting male balb/c mice weighing between 18 to 20 g by giving them three IP injections of caerulein, with each dose at 100 μg/kg body weight. The injections of each were given at two hour intervals over a 6 hour period. The ability of N-Boc-L-Asp-Pro-Arg-al (compound 9) to inhibit the induced pancreatitis was tested by injection into caerulein-treated mice. The inhibitor was dissolved into TBS, then injected IP into the mice. The first injection was given 1/4 hour prior to the caerulein treatment, then one hour after each caerulein injection. Inhibitor dose tested was 50 mg/kg body weight.
A blood serum sample was drawn and tested for amylase concentration. The blood sample was obtained by periorbital bleeding into heparized tubes 4 hours after the last injection of inhibitor. After centrifuging to remove the blood cells, the serum was the diluted 1:10 in TBS and assayed with Sigma Diagnostics Amylase reagent. The kinetic change in absorbance was measured at 405 nm for 1 minute, then was convereted into U/ml amylase activity.

[2] = biological target: bovine and human pancreatic trypsin; assay: Potency: determination of inhibitor constant Ki against trypsin (S-2222 substrate, Dixon plot); type: biochemical; details: 37° C., TBS pH 7.4, 15 min preincubation, read-out: Ki For Peptide Aldehydes Against Trypsin
Experimental: The potency and specificity of the compounds of the present invention are determined by in vitro assay methods well known in the art. […] Specifically, the inhibitor constant, Ki, of the compounds can be determined by the method of Dixon, Biochem. J. 55:170 (1953). The specificity is assessed by determination of the concentration, IC50, of compound required to give 50% inhibition of the enzymatic activity of the coagulation enzymes, kallikrein, factor XIa, factor VIIa, factor Xa, thrombin; the fibrinolysis enzymes, plasmin, tissue plasminogen activator (tPA), and urokinase (UK), and the anticoagulation enzyme, protein C. Specificity is found when the concentration of compound giving 50% inhibition of trypsin is low relative to the concentration required to give like inhibition of the other enzymes.
Enzyme activity was determined using as substrate S-2222 [N-benzoyl-L-isoleucyl-L-glutamyl-glycyl-L-arginine-p-nitroanilide hydrochloride where glutamyl side chain is 50% carboxylic acid and 50% methyl ester], purchased from Kabi Diagnostica. The substrate was made up in deionized water prior to use.
A 96-well microtiter plate was prepared for use in the assay by incubating each well with 300 μL of 1% bovine serum albumin (in deionized water) for 30 minutes at 37° C., and washing three times with deionized water.
To each well was added 50 μL TBS (0.1M Tris, 0.14M NaCl, pH 7.4), 50 μL 2.5 nM trypsin and 50 μL peptide aldehyde in TBS or TBS alone. After incubating for 15 minutes at 37° C., 50 μL of S-2222 (at 37° C.) at a specified concentration was added to each well. After mixing, the rate of substramte turnover at 37° C. was measured for 30 minutes at 405 nm (generation of p-nitroaniline). The initial S-2222 concentrations in the assay mixture were 0.45, 0.23, 0.11, 0.056, and 0.028 mM.
Ki was determined graphically using a Dixon plot, as described in Dixon, Biochem. J. 55:170 (1953).

[3] = biological target: T1, human kallekrein (Homo sapiens, UniProt P03952); assay: Kallikrein assay (S-2302 substrate); type: biochemical
T1 construct: 50 μL of 4 to 9 nM human kallekrein
Experimental: (§1) The specificity of the peptide aldehydes (8 through 12) was determined in vitro by measurement of their IC50 against other enzymes involved in hemostasis. A specific concentration of enzyme and its substrate were challenged with varying concentrations of inhibitor. […] Specific assay procedures used are presented below.
(§2) 96-well microtiter plates were prepared for use in these assays by incubating each well with 300 μL 1% bovine serum albumin (in deionized water) for 30 minutes at 37° C., then washing three times with deionized water.
(§3) The substrate was made up in deionized water prior to use.

[4] = biological target: plasmin (Homo sapiens, UniProt P00747); assay: Plasmin assay (S-2251 substrate); type: biochemical; design: 50 μL 25 nM human plasmin
Experimental: as §1, §2, §3

[5] = biological target: T2, human urokinase (Homo sapiens, UniProt P00749); assay: Urokinase assay (S-2444 substrate); type: biochemical
T2 construct: 50 μL of 270 U/mL human urokinase
Experimental: (§4) The specificity of the peptide aldehydes (8 through 12) was determined in vitro by measurement of their IC50 against other enzymes involved in hemostasis. A specific concentration of enzyme and its substrate were challenged with varying concentrations of inhibitor. IC50 is that concentration of inhibitor giving 50% inhibition of substrate turnover, under the assay conditions. Specific assay procedures used are presented below.
as §2
Enzyme activity was determined using as substrate S-2444 [L-pyroglutamyl-L-glycyl-L-arginine-p-nitroanilide hydrochloride], purchased from Kabi Diagnostica. The substrate was made up in deionized water prior to use.
The assay was run by combining in appropriate wells 50 μL inhibitor in TBS or TBS alone and 50 μL of 270 U/mL human urokinase (or TBS as background control) and 50 μL TBS, incubating this mixture for 30 minutes at room temperature, adding 50 μL 1 mM S-2444, incubating for an additional 30 minutes at room temperature, then reading the absorbance of the wells at 405 nm on a microtiter plate reader set with background substraction at 650 nm.

[6] = biological target: T3, human Factor XIa (Homo sapiens, UniProt P03951); assay: Factor XIa assay (S-2366 substrate); type: biochemical
T3 construct: 50 μL of 5 nM human Factor XIa
Experimental: as §1, §2, §3

[7] = biological target: T4, bovine thrombin (Bos taurus, UniProt P00735); assay: Thrombin assay (S-2238 substrate); type: biochemical
T4 construct: 50 μL 20 nM bovine thrombin
Experimental: as §4, §2
Enzyme activity was determined using as substrate, S-2238 [D-phenylalanyl-L-pipecolyl-L-arginine-p-nitroanilide dihydrochloride], purchased from Kabi Diagnostica. The substrate was made up in deionized water prior to use.
The assay was run by combining in appropriate wells 50 μL TBS and 50 μL inhibitor in TBS or TBS alone and 50 μL 20 nM bovine thrombin (or TBS as background control), incubating this mixture for 30 minutes at room temperature, adding 50 μL 1 mM S-2238, incubating for an additional 30 minutes at room temperature, then reading the absorbance of the wells at 405 nm on a microtiter plate reader set with background substraction at 650 nm.

[8] = biological target: recombinant tissue plasminogen activator (Homo sapiens, UniProt P00750); assay: Tissue plasminogen activator assay (S-2288 substrate); type: biochemical
Experimental: as §1, §2, §3

[9] = 30 min preincubation, room temperature, tested 0.025-25 μM, Inact. = no inhibition at highest concentration
[10] = [IC50 for Trypsin/IC50 for other enzyme]×100, lower = more trypsin selective

T1 sequence (P03952 391-638 limits assumed): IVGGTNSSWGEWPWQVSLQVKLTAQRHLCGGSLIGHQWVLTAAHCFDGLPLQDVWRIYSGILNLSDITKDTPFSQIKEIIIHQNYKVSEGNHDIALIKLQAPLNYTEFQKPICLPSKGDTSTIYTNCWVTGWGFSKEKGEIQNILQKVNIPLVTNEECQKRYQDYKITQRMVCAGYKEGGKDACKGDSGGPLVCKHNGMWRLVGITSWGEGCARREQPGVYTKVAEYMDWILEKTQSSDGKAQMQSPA
T1 sequence (P03952 20-390 partner limits assumed): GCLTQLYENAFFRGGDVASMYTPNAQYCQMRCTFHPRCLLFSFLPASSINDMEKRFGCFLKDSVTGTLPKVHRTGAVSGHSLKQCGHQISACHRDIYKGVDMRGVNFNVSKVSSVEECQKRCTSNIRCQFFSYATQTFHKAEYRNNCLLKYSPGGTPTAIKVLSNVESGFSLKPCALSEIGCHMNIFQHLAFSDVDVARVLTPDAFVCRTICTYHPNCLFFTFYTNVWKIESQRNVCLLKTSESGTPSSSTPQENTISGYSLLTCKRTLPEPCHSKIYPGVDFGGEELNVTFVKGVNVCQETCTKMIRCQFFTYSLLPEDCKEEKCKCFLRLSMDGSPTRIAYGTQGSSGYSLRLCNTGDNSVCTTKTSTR
recombinant tissue plasminogen activator, sequence (P00750 36-562): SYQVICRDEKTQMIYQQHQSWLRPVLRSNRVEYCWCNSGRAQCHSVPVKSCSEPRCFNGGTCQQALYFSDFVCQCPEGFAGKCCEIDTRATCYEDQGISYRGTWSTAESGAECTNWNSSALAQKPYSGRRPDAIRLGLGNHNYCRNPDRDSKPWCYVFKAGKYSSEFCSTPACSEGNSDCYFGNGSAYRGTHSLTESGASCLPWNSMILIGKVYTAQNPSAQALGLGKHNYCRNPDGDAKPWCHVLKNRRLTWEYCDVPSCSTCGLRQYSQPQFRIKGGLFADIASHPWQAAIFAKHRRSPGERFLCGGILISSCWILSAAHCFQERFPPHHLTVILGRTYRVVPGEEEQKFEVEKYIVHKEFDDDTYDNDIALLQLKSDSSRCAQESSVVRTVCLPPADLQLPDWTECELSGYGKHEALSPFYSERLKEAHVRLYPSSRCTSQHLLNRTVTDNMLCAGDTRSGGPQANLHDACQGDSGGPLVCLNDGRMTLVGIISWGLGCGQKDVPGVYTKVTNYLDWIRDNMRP
T3 sequence (P03951 388-625 limits assumed): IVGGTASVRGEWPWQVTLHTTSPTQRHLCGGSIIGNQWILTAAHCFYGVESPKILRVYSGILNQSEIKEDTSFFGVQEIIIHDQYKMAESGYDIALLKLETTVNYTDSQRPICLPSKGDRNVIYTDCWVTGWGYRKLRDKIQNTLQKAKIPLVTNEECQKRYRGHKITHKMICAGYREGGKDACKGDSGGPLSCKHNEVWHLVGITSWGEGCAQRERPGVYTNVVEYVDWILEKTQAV
T3 sequence (P03951 19-387 partner limits assumed): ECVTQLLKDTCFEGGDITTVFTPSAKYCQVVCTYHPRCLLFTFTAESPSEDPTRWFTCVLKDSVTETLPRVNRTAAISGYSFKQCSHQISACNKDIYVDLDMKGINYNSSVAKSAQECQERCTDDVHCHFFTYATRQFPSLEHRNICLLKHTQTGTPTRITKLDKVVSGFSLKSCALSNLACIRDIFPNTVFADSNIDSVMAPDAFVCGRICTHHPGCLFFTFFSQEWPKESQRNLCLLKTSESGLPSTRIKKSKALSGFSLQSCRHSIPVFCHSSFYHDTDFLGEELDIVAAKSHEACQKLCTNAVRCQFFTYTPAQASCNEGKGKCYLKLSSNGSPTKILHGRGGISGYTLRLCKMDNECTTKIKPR
plasmin, sequence (P00747 581-810 limits assumed): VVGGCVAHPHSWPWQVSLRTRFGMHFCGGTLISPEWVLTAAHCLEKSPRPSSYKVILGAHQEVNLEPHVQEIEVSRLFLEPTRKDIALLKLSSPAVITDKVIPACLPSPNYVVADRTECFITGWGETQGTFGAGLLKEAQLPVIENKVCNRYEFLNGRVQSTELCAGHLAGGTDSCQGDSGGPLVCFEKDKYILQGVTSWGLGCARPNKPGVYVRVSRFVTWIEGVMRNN
plasmin, sequence (P00747 97-580 partner limits assumed): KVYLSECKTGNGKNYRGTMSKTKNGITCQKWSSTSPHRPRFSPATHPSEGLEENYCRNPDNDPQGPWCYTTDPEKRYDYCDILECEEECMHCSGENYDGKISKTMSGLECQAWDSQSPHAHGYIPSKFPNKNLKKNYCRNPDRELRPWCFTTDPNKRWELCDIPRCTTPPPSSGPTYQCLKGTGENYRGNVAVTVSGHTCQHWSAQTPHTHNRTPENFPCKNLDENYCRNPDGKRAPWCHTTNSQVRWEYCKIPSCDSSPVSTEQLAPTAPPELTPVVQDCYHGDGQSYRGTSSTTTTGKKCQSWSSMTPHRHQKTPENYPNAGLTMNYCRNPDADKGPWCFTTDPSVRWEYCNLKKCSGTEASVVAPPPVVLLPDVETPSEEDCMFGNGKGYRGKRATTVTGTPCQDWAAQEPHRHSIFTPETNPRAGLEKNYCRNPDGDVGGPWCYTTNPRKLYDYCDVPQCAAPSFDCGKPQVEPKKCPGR

pKi [2]: 9.35
pIC50 [3, 9]: 4.77
Calculated % Selectivity Kallikrein [3, 10]: 0.08%
pIC50 [4, 9]: 5.85
Calculated % Selectivity Plasmin [4, 10]: 1%
pIC50 [5, 9]: 4.60
Calculated % Selectivity UK [5, 10]: 0.06%
pIC50 [6, 9]: 4.92
Calculated % Selectivity XIa [6, 10]: 0.12%
pIC50 [7, 9]: 4.77
Calculated % Selectivity Thrombin [7, 10]: 0.08%
IC50 tPA [8, 9]: Inact.
Calculated % Selectivity tPA [8, 10]: 0%
Compound: CC(C)(C)OC(=O)N[C@@H](CC(=O)O)C(=O)N1CCC[C@H]1C(=O)N[C@H](C=O)CCCNC(=N)N [Compound 9, N-t-butyloxycarbonyl-L-Asp-L-Pro-L-argininal] (Boc-Asp-Pro-Arg-aldehyde)
Amylase Activity, Mean ± S.D [1]: 40.8 ± 5.2 U/ml
